Here are results for two molecules from PMC6072516, “Rational design and synthesis of novel phenylsulfonyl-benzamides as anti-prostate cancer agents” (MedChemComm, 2017).

SMILES strings stand for the structures.

What is called IC50 is the point on the concentration scale where inhibition reaches its midpoint. In general, viability refers to a per cent measure of how many cells are alive, often set against a control.

Data set [1] deals with HEK293 human embryonic kidney cells. The data set can be described thus: Cell Titer Blue viability (cytotoxicity) assay. In kind it is cell-based. On the procedure:
(§1) A Cell Titer Blue viability assay was performed in the human embryonic kidney cell line HEK293, in order to evaluate the cytotoxicity profile of the newly prepared compounds. […] .
(§2) Fig. 5 HEK293 human embryonic kidney cells were treated at 70% confluence with negative controls (0.1% DMSO, BICAL at 10 μM), positive control (10% DMSO) and compounds at 10 μM concentration for 24 hours. […] Fluorescence was measured at 560/590 nm using a CLARIOstar luminescence plate reader (BMG Labtech). N = 4, n = 6 for controls, n = 3 for drugs. […]
(§3) for calculation of the geometric mean value. […]
(§4) of 0.05% Trypsin/EDTA. […] When all cells […]
(§5) chamber counting grid (Immune Systems). […]
(§6) confluence for assay the next day. […]
(§7) drugs at 10 µM concentration.
(§8) 100 µl media. […] Fluorescence was measured
(§9) USA). […] The Dunnett’s multiple […]
(§10) comparison test was used to compare each drug and the positive control to the negative control […]
(§11) Compound R1 X R2 Cell Viability Antiproliferative
(§12) Mean (%)* SEM** Abs. IC50
(§13) Table S2. Cell Viability assay at 10 µM. * Mean % of cell viability relative to control; ** Errors are calculated as standard error of the mean; ***Geometric mean.
(Alamar Blue is a resazurin reagent that responds to reducing activity.)

A further data set has as its system LNCaP. The data set can be described thus: 2D monolayer antiproliferative assay (propidium iodide), LNCaP. To be noted: Homo sapiens, LNCaP, 96 h, read-out: Absolute IC50 LNCaP.
Another data set concerns DU-145. The experiment in a line: 2D monolayer antiproliferative assay (propidium iodide), DU-145. To be noted: Homo sapiens, DU-145, 96 h, read-out: Absolute IC50 DU-145.
In data set [2] the test system is four human prostate cancer cell lines: LNCaP, 22Rv1, VCaP, DU145. The data set can be described thus: Antiproliferative assay, overall effect in the four cell lines (geometric mean). In kind it is cell-based. Particulars: Homo sapiens, geometric mean of the four cell lines; read-out: Absolute IC50 Geo. mean. The procedure:
PCR based DNA-fingerprinting methodology.
density of 4.000 – 30.000 cells/well.
test compound were added.
concentrations in triplicate.
After an incubation period of
control/background ratio >3.0
The absolute IC50 value reflects the
The calculation was done by a 4
for calculation of the geometric mean value.
of 0.05% Trypsin/EDTA. […] When all cells

Data set [3] is described as follows: Cell Titer Blue viability (cytotoxicity) assay. It is filed as cell-based, human. To be noted: human. On the procedure: as §1, §2, §3, §4, §5, §6, §7, §8, §9, §10, §11, §12, §13
In a further data set the test system is VCaP. The experiment in a line: 2D monolayer antiproliferative assay (propidium iodide), VCaP. Particulars: Homo sapiens, 96 h, read-out: Absolute IC50 VCaP.
Another data set concerns 22Rv1. The experiment in a line: 2D monolayer antiproliferative assay (propidium iodide), 22Rv1. Particulars: Homo sapiens, 22Rv1, 96 h, read-out: Absolute IC50 22Rv1.

Procedure for DU-145: All new compounds along with the two standards were tested for their ability to inhibit survival and/or cell proliferation in four human prostate cancer cell lines: LNCaP, 22Rv1, VCaP, androgen-sensitive cell lines, and DU145, a non hormone-sensitive cell line.
Compound Handling: Stock solutions for all inhibitors were prepared in DMSO at a
were well soluble at this concentration in DMSO and precipitation was not observed for any
compound dissolved in 100% DMSO. Aliquots of the stock solution were thawed on the day
of use and stored at room temperature prior to and during treatment. The subsequent dilutions
were done with complete RPMI1640 cell culture medium. The DMSO stock solution was first
Starting with this solution, serial dilutions in
half-log steps with cell culture medium were done using an intermediate dilution plate. Finally,
10 µl taken from the intermediate dilution plate were transferred to 140 µl / well of the cell
culture plate. Thus, at the highest test concentration the DMSO stock was diluted 1:330,
corresponding to a maximum DMSO concentration of 0.3 % v/v in the assay. Solubility of the
diluted compounds in the assay was monitored under the microscope by visual inspection of
the treated cell lines after the 4 days incubation. Precipitation as observed by crystalline
Tumor Cell lines: The cell line panel used for assessing the novel inhibitors comprised four
cell lines derived from human prostate cancers.
6-7 Cell lines were routinely passaged once or twice weekly and maintained in culture for up to 20 passages. All cells were grown at 37°C in
glutamine, #FG1385, Biochrom, Berlin, Germany) supplemented with 10% (v/v) fetal calf serum (Sigma, Taufkirchen, Germany) and 0.1 mg/mL gentamicin (Life Technologies,
Cell Proliferation Assay: A modified propidium iodide (PI) based monolayer assay was used
exponential phase cultures, counted and plated in 96-well flat-bottom micro titer plates at a cell density of 4.000 – 30.000 cells/well. After a 24 h recovery period to allow the cells to resume exponential growth, 10 µl of culture medium (six control wells/plate) or culture medium with test compound were added. The compounds were applied in half-log increments at 10 concentrations in triplicate. After a total treatment period of 96 h, cells were washed with 200 µl PBS to remove dead cells and debris. Then, 200 µl of a solution containing 7 µg/ml propidium iodide (PI) and 0.1% (v/v) Triton X-100 was added. After an incubation period of 1-2 hours at room temperature, fluorescence (FU) was measured using the EnSpire Multimode Plate Reader (excitation λ= 530 nm, emission λ= 620 nm) to quantify the amount of attached
For calculation of mean IC50 values the geometric mean was used.
Data Evaluation: An assay was considered fully evaluable if the following quality control
- Z’-factor calculated within the assay plate ≥0.59
- fluorescence intensity of >500 U from the untreated control wells, equivalent to a
- coefficient of variation in the growth control wells ≤30
Compound effects were expressed in terms of the percentage of the fluorescence signal, obtained by comparison of the mean signal in the treated wells with the mean signal of the untreated controls (expressed by the test-versus-control value, T/C-value [%]):

Take `C[S+](C)[O-]` [10% DMSO]: the “Cell Viability Mean (%)” value in data set [1] (10 µM) was determined as 1.45%.

For the molecule `O=C(Nc1ccc(S(F)(F)(F)(F)F)cc1)c1ccc(S(=O)(=O)c2ccc(O)cc2)cc1` [Compound 13e, 4-((4-Hydroxyphenyl)sulfonyl)-N-(4-(pentafluorothio)phenyl)benzamide], the IC50 was determined as 2.49 µM in the data set on LNCaP; 10.8 µM in the data set with DU-145; 5.37 µM in data set [2]; 5.35 µM in the data set on VCaP; 5.78 µM in the data set with 22Rv1. The “reduction of cell viability / cells killed” value in data set [1] (human, 24 h, 10 μM) is given as “more than 50%”. In data set [3], this molecule gave a viability at 24 h, 10 µM of 38.4%.
